The values below come from ChEMBL document CHEMBL5465560, “Selectivity Literature for EUbOPEN Chemogenomic Library” (2024).

A value given as a limit tells only on which side of the number the result lay.

The target in assay [1] is T1, Serine/threonine-protein kinase NLK (Homo sapiens) (UniProt Q9UBE8).
T1 sequence (whole entry): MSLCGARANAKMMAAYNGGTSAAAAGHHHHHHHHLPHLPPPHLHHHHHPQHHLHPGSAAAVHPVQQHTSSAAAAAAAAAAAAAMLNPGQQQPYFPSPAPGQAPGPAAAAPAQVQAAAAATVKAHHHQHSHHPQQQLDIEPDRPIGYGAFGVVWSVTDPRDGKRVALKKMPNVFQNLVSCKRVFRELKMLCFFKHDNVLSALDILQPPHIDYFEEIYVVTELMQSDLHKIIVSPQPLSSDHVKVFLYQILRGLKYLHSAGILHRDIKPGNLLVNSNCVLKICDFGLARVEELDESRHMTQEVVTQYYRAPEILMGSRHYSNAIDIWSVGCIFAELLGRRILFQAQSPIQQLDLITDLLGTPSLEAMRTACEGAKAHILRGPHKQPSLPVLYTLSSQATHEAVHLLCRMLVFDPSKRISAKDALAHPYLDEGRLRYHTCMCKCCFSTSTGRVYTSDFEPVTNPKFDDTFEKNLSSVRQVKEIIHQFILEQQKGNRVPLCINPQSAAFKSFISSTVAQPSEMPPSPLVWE
The experiment in a line: Selectivity interaction (ProQinase) EUB0000171b NLK.

Assay [2] concerns the target Inhibitor of nuclear factor kappa-B kinase subunit alpha (Homo sapiens, UniProt O15111). The assay can be described thus: Selectivity interaction (Kinase panel (Enzyme activity assay)) EUB0000612a CHUK.
Assay [3] concerns the target T2, Tyrosine-protein kinase Mer (Homo sapiens) (UniProt Q12866).
T2 sequence (whole entry): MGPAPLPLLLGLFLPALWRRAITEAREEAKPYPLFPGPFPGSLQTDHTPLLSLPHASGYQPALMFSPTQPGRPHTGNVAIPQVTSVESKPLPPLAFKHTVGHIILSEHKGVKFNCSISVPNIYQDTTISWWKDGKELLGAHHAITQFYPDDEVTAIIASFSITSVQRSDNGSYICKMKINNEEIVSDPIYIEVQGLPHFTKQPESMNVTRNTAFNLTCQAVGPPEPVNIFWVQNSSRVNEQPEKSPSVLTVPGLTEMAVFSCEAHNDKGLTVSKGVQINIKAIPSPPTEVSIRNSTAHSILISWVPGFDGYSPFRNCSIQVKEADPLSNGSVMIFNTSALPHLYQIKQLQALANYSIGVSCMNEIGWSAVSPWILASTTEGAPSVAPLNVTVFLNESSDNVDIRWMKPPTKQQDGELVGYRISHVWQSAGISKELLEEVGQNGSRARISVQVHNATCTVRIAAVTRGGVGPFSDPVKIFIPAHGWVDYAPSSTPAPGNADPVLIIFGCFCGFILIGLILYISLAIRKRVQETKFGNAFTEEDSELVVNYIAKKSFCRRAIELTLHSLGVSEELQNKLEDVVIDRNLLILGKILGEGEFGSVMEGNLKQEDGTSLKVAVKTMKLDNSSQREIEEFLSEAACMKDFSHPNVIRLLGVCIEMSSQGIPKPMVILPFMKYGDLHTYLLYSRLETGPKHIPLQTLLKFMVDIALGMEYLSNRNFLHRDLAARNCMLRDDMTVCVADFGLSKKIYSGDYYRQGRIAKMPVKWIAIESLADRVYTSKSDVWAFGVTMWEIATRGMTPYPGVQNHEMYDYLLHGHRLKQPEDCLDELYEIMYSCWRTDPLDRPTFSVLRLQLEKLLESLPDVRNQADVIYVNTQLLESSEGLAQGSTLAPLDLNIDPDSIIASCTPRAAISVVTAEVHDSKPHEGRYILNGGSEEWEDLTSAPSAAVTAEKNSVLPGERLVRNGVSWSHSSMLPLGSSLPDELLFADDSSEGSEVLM
The experiment in a line: Selectivity interaction (Kinase panel (DSF assay)) EUB0001559a MERTK. In general terms: DSF heats the sample and reads unfolding from a dye or from intrinsic fluorescence.

Assay [4] deals with T3, Muscle, skeletal receptor tyrosine-protein kinase (Homo sapiens) (UniProt O15146).
T3 sequence (whole entry): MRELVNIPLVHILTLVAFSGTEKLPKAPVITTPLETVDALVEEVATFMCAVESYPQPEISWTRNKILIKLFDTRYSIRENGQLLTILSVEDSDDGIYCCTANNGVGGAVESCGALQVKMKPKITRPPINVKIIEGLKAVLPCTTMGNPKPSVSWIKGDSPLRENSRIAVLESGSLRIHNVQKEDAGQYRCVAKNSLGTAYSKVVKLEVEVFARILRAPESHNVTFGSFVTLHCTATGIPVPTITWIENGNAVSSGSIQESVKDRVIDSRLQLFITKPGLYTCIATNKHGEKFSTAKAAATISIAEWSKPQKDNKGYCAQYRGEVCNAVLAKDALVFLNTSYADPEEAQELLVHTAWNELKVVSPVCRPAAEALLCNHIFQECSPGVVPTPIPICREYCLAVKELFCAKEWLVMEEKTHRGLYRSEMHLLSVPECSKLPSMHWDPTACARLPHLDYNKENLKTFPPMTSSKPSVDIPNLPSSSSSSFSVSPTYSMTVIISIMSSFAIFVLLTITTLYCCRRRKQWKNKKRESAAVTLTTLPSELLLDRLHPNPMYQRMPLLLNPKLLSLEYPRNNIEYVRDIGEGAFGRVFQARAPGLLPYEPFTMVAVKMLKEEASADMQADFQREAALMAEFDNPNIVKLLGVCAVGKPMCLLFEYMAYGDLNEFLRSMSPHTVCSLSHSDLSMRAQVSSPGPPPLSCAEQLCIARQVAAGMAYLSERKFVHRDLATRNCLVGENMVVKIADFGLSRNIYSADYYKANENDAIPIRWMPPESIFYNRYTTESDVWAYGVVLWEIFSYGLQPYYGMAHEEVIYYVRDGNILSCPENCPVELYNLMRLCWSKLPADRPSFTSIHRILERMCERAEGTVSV
The experiment in a line: Selectivity interaction (KinomeScan (DiscoverX)) EUB0000595a MUSK. The note with it: at 10 µM.

For assay [5], the target named is T4, Serine/threonine-protein kinase 3 (Homo sapiens) (UniProt Q13188).
T4 sequence (whole entry): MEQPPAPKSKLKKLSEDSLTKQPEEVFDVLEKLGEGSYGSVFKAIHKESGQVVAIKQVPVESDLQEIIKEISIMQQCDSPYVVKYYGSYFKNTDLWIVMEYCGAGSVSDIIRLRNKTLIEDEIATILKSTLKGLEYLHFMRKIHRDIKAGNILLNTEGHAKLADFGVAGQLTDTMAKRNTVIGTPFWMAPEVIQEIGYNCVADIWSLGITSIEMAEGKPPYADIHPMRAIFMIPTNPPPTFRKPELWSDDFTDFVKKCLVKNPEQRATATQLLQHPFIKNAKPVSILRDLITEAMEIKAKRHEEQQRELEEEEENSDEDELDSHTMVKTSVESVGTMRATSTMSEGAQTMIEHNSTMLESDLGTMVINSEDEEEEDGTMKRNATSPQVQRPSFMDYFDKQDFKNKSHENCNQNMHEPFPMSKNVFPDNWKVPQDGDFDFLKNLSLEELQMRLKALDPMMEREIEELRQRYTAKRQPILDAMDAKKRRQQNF
The experiment in a line: Selectivity interaction (ActivX KiNativ screen (ex vivo kinase selectivity in human PBMCs)) EUB0001619a STK3. The assay is classed as cell-based. The settings on record: PBMC, at 1 µM.

Sequence of Inhibitor of nuclear factor kappa-B kinase subunit alpha (O15111 whole entry): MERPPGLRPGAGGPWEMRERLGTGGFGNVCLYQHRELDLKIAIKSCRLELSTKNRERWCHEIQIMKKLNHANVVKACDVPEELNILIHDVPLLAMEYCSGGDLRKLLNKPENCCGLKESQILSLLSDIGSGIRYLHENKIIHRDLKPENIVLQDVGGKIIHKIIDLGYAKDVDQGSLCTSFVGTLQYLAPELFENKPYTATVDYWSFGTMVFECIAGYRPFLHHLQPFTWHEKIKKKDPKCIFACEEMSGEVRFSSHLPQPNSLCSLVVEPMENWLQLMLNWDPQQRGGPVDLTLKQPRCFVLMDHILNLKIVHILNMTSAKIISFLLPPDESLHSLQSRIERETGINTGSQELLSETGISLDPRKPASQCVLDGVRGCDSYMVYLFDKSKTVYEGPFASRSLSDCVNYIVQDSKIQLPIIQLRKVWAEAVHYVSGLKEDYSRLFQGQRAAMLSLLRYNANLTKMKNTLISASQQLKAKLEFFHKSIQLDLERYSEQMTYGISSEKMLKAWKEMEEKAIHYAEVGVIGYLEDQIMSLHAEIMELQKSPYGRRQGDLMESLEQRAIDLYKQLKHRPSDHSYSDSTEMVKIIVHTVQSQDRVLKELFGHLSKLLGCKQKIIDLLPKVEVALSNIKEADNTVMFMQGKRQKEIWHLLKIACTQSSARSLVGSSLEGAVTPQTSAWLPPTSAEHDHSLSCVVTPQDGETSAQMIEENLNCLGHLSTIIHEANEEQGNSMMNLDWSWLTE

On to `C=CC(=O)Nc1cccc(C(=O)Nc2ccc(Nc3cc(-c4[nH]c(SC)nc4C)ccn3)cc2)c1`, for which the % of control in assay [1] (at 1 µM) worked out at 86%; in assay [1] (at 5 µM) it was 37%.

What is called IC50 is the concentration needed to halve the response being measured. A lower IC50 goes with higher potency. As for `CCc1cccc(CC)c1NC(=O)c1nn(C)c2c1CCc1cnc(Nc3ccc(C(=O)NC4CCN(C)CC4)cc3OC(F)(F)F)nc1-2`, the 50% inhibitory concentration (IC50) in assay [2] is more than 10 µM.

On to `CN(C(=O)c1cnn2cccnc12)c1cc2c(cc1N1CCOCC1)C(=O)N(C[C@@H](F)C(C)(C)O)C2`, for which the dTM in assay [3] was found to be 0.3 K.

With `COCC(=O)NC/C=C/c1ccc2ncnc(Nc3ccc(Oc4ccc(C)nc4)c(C)c3)c2c1` [CP-724714], in assay [4], the % of control turned out to be 100%.

For `N#Cc1cccc(-c2c[nH]c3ncnc(N4CCOCC4)c23)c1`, the % of inhibition in assay [5] was 83%.
